According to PMC5418359, “Topical Ophthalmic Formulation of Trichostatin A and SurR9-C84A for Quick Recovery Post-alkali Burn of Corneal Haze” (Frontiers in Pharmacology, 2017):

Key:
corneal lysate = experiment: Multianalyte ELISA of inflammatory cytokines in corneal lysate; format: in vivo, rat
Description: The cytokine profiling was performed using the Rat Inflammatory Cytokines & Chemokines Multi-Analyte ELISArray Kit (QIAGEN, USA). Briefly, serial dilutions of the Antigen Standard and the experimental samples were prepared. 50 μL of Assay Buffer was added to each well of the 8-well ELISA strips. Fifty microliters samples and/or standards were added to the appropriate wells of the ELISA strips and incubated for 2 h at room temperature. The ELISA strips were further washed using 350 μL 1 × Washing Buffer thrice. Hundred microliters of Detection Antibody solution was added to the ELISA strips and incubated for 1 h at room temperature. ELISA wells were washed as mentioned above. Hundred microliters of the Avidin–HRP solution was added to all wells and incubated for 30 min at room temperature. ELISA wells were washed as mentioned above. Hundred microliters of Development Solution was added to each well and incubated for 15 min at room temperature in the dark. Hundred microliters of Stop Solution was added to each well. The color changed from blue to yellow. The absorbance at 450 nm was measured within 30 min of stopping the reaction. The estimation of pg/mL of cytokines was performed using the values obtained from antigen standards and a graph was plotted for the cytokine expression with the effect of treatments.

rat corneal tissues = conditions: for clathrin (conjunctival layer) and claudin (corneal layer) expressions, immunofluorescence: post-NaOH insult
Blood analysis = format: in vivo; set-up: HCT / MCH / WBC / RBC / HGB / MCHC: unit not given here; conditions: rat blood; for MCV: in fL (unit assumed)
Description: The analysis of blood samples was performed directly using the ABX Micros ES 60 (Horiba Medicals). The parameters analyzed included the number of red blood cells (RBC’s), white blood cells (WBC’s), platelets and hemoglobin content. Briefly, 20 μL of the blood sample was acquired in the instrument and the readings were recorded.

[1] = tested on: conjunctival layer and corneal matrix; experiment: H&E histology of corneal segments, rat alkali burn model; format: in vivo; conditions: 1 M NaOH 1 min, topical treatment 40 min
Description: After the completion of the study, all tissues that required to be examined (eyes, brain, kidneys, liver, spleen, heart and lungs) were isolated. The cornea was carefully separated from the eye without damaging it and washed using phosphate buffer saline (PBS). Tissues were fixed using 4% paraformaldehyde (PF) overnight at 4°C and then washed in PBS. The tissue segments were dehydrated in graded ethanol, embedded in paraffin and 5–7 μm thick sections were cut using a microtome. Sections were collected on poly-lysine coated slides using the Leica cryostat and were fixed immediately in ice-cold acetone. All the sections were stained for haematoxylin–eosin (H&E) for critical analysis.

[2] = tested on: rat eyes post-alkali burn
cornea = experiment: Mean opacity and mean permeability measurements, rat alkali burn model; format: in vivo; conditions: for Mean in vitro score / Mean opacity measurement: 1 M NaOH 1 min, topical treatment 40 min; for Predicted irritation potential: rat, in vivo
Description: The mean in vivo scores was determined using the mean opacity measurements. The rat eyes were excised carefully and carried to the laboratory in HBSS supplemented with penicillin/streptomycin. The measurement of mean opacity was carried out using an opacitometer which measures the transmission of light through the center of each mounted cornea. The mean permeability score was determined by adding a fluorescent (rhodamine solution) on the anterior side of the holder and the corneas were incubated in a horizontal position for 90 min at 32°C. The medium in the posterior chamber was removed and added to 96 well plates and the OD at 490 nm was read. The readings obtained at OD490 were used to determine the permeability of each treatment with respect to the change in the untreated corneas.

[3] = tested on: expression of survivin, TGF-beta-1, alpha-SMA and collagen IV in alkali burnt cornea; experiment: Ex vivo RT-PCR dose ranging in alkali burnt rat eyes; conditions: 1 M NaOH 1 min, treatment 40 min
Description: This procedure was carried out using a previously published protocol ([Lin et al., 2016]). Rat eyes were harvested from humanely killed rats and washed with HBSS. Rat eyes were further incubated with 1 M NaOH for 1 min and then treated with TSA ([…]), SurR9-C84A (0.5, 1.2, and 2.5 mg/kg), pSur/As-Sur ([…]) and empty plasmid (200, 400, and 800 μg/kg) for 40 min. Untreated eyes were maintained as controls. After treatment period, eyes were washed with PBS and total RNA was extracted using the TRIzol® reagent (cat# 15596-026, Thermo Fisher Scientific, Waltham, MA, USA), and complementary DNA (cDNA) was synthesized from RNA using the RevertAid H Minus First Strand cDNA Synthesis Kit (cat# K1631, Thermo Fisher Scientific). Expression of survivin, TGF-beta-1, alpha-SMA and collagen IV was determined by polymerase chain reaction (PCR).

## [Na+].[OH-] [NaOH]
Corneal lysate
  GMCSF expression, ELISA: enhanced
  IFN-gamma expression, ELISA: upregulated
  IL-1 beta expression, ELISA: increase
  IL-4 expression, ELISA: decrease
  IL-6 expression, ELISA: enhanced
  IL-10 expression, ELISA: significant increase
  IL-12 expression, ELISA: decreased
  IL-13 expression, ELISA: enhanced
  Rantes expression, ELISA: upregulated
  TNF-alpha expression, ELISA: enhanced
Rat corneal tissues; confocal microscopy
  alpha-SMA expression, immunofluorescence: substantially enhanced
  collagen type IV expression, immunofluorescence: downregulated
  survivin expression, immunofluorescence: slightly increased
Rat corneal tissues
  clathrin (conjunctival layer) and claudin (corneal layer) expressions, immunofluorescence: substantially lowered
Blood analysis
  MCHC: 37.51 ± 4.79
  RBC: 6.53 ± 2.89
  WBC: 3.4 ± 1.19
  MCV: 62.5 ± 8.01
[1]
  corneal tissue integrity (conjunctival layer, corneal matrix), H&E: damage of the conjunctival layer and the corneal matrix
Rat corneal lysates; NaOH insult
  increase in alpha-SMA expression, western blot: 2.7 fold
Rat corneal lysates; rat, in vivo, iv
  decrease/downregulation of collagen type IV, western blot: 1.1 fold
[2]
  Collagen type IV gene expression, qRT-PCR: increase
  IL-1 beta gene expression, qRT-PCR: decreased
  IL-6 gene expression, qRT-PCR: increased
  MMP-2 gene expression, qRT-PCR: increase
  MMP-9 gene expression, qRT-PCR: lowered
  TGF-beta-1 gene expression, qRT-PCR: increase
  TNF-alpha gene expression, qRT-PCR: increased
  alpha-integrin 5 gene expression, qRT-PCR: lowered
cornea
  Mean in vitro score: 10.2 ± 0.5^∗∗∗
  Mean opacity measurement: 2.5 ± 0.5^∗∗
  Predicted irritation potential: Moderate irritation

## SurR9-C84A: dominant negative survivin protein (survivin mutant)
Corneal lysate
  IL-1 alpha expression, ELISA: significantly increase
  IL-1 beta expression, ELISA: further increase
  IL-2 expression, ELISA: significantly increased
  IL-4 expression, ELISA: increase
Rat corneal tissues; confocal microscopy
  alpha-SMA expression, immunofluorescence: substantial decrease
  survivin expression, immunofluorescence: increase
Rat corneal tissues
  clathrin (conjunctival layer) and claudin (corneal layer) expressions, immunofluorescence: more effective than TSA alone
[3]
  most effective dosage in inhibiting expression of survivin, alpha-SMA, TGF-beta-1 and collagen IV: 1.2 mg/kg
Blood analysis
  HCT: increased the HCT count to normal range
  HGB: 17.1 ± 1.11
  MCH: reduced to normal range
  MCHC: 36.61 ± 1.57
  PLT: increased
  RBC: 8.35 ± 0.99
  WBC: 1.3 ± 3.18
  MCV: 55.66 ± 1.86
Blood analysis; listed as NaOH–SurR9-C84A
  HCT: 46.85 ± 4.14
  MCH: 20.36 ± 1.42
  PLT: 547.16 ± 130
[1]
  corneal tissue integrity (conjunctival layer, corneal matrix), H&E: recovery of the conjunctival layer
Rat corneal lysates; post-NaOH insult
  downregulation of alpha-SMA, western blot: 6.75 fold
  enhancement of Fibronectin-1 expression, western blot: 1.97 fold
  increase in TGF-beta-1 expression, western blot: 2.4 fold
  increase in survivin expression, western blot: 7.7 fold
[2]
  Collagen type IV gene expression, qRT-PCR: efficiently downregulated
  Fibronectin-1 gene expression, qRT-PCR: significantly enhanced
  IL-1 beta gene expression, qRT-PCR: increase
  MMP-2 gene expression, qRT-PCR: downregulating
  TGF-beta-1 gene expression, qRT-PCR: further increase
  alpha-SMA gene expression, qRT-PCR: significant decrease
  survivin gene expression, qRT-PCR: significantly increased
cornea
  Mean in vitro score: 0.0^∗
  Mean opacity measurement: 0.0^∗
  Predicted irritation potential: No irritation
